Measured values published in US20100144779A1, “Marine Alkalod Makaluvamines and Derivatives Thereof” (THE UAB RESEARCH FOUNDATION, priority 2007, published 2010).
Entries after “also recorded” stand apart in the source; their conditions may differ.

Legend:
MDA-MB-468 = test: XTT cytotoxicity assay; assay type: cell-based, human; conditions: average ± standard deviation of 2-4 independent assays, read-out: Inhibition of Cancer Cell Proliferation (IC50) MDA-MB-468
Experimental: (§1) In initial experiments, compounds 4a-g and 7c-g were evaluated for their cytotoxicity against human breast cancer cell lines MCF-7 and MDA-MB-468 and human colon cancer cell line HCT-116. The makaluvamine compounds provided in Table 2 were also evaluated for their cytotoxicity against human breast cancer cell lines MCF-7. Compound nos. 8 and 27-33 were not evaluated in this experiment. Cells were obtained from ATCC (Manassas, Va.). For each derivative the IC50 value was determined using data generated from 2-4 independent tetrazolium-based (XTT) cytotoxicity assays (R & D Systems Inc., Minneapolis, Minn.) according to the manufacturer's instructions. […] MCF-7, MDA-MD-468 and HCT-116 cells were grown at 37 degrees C. in a humidified atmosphere with complete growth media supplemented with fetal bovine serum. Growth media was changed 2-3 times per week as required.

MCF-7 = test: XTT cytotoxicity assay; assay type: cell-based, human; conditions: XTT; average ± standard deviation of 2-4 independent assays; read-out: Inhibition of Cancer Cell Proliferation (IC50) MCF-7
Experimental: as §1

HCT-116 = test: XTT cytotoxicity assay; assay type: cell-based, human; conditions: average ± standard deviation of 2-4 independent assays, read-out: Inhibition of Cancer Cell Proliferation (IC50) HCT-116
Experimental: as §1

topoisomerase II = biological target: T1, topoisomerase II (Homo sapiens, UniProt P11388); test: Topoisomerase II drug screening kit (relaxation of plasmid DNA); assay type: biochemical; set-up: key to Topoisomerase II Inhibition: — none; + low; ++ moderate; +++ strong; conditions: for Topoisomerase II Inhibition: 100 μM drug compound, topoisomerase II (4U), 500 ng plasmid DNA; for inhibition of topoisomerase II catalytic activity (in words): 100 μM makaluvamine derivative
T1 construct: purchased TopoGEN, Inc., Port Orange, Fla
T1 sequence (P11388 whole entry): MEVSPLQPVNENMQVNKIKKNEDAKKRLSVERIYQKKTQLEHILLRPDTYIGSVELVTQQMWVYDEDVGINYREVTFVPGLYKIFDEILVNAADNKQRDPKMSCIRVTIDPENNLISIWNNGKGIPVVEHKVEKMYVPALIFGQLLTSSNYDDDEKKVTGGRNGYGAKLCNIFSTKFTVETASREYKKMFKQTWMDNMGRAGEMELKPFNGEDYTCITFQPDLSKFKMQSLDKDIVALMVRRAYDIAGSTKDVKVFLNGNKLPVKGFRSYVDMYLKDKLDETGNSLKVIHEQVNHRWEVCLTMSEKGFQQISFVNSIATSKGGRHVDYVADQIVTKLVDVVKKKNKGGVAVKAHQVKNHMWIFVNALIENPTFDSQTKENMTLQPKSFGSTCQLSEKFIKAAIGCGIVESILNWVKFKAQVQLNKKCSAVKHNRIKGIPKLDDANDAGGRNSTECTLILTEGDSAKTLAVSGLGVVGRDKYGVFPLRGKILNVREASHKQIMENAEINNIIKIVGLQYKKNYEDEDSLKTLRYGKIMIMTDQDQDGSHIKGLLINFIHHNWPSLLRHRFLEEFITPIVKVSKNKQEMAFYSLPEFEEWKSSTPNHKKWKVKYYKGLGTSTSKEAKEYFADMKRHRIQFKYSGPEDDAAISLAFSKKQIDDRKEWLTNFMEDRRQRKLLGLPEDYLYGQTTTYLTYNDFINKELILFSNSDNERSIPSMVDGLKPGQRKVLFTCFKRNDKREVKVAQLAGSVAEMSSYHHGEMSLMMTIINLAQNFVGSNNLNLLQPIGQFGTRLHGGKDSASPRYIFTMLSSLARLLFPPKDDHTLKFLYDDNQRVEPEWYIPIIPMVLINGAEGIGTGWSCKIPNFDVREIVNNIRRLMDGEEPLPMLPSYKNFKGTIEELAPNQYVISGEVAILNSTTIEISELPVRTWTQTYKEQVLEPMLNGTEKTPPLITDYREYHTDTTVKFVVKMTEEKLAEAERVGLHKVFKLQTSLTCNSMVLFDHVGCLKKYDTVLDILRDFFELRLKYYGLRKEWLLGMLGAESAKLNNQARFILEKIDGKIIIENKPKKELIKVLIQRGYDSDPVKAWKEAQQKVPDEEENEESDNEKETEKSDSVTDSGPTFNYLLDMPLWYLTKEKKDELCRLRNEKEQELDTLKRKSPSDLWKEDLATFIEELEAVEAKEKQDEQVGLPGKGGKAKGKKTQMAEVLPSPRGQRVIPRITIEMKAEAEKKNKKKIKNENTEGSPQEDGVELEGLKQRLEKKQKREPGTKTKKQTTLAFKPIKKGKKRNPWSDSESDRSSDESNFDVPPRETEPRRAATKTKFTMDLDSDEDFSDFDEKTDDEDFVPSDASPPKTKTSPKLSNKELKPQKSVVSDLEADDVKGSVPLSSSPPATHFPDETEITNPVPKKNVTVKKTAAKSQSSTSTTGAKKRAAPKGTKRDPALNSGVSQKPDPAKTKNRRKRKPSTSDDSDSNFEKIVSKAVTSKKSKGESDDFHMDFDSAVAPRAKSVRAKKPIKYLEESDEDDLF
Description: In order to determine the effect of the makaluvamine derivatives of the present disclosure, the synthesized makaluvamine derivatives were screened for their ability to inhibit topoisomerase II activity in vitro. Topoisomerase II functions by generating a double-stranded DNA break followed by resealing of the break. Topoisomerase II inhibitors interfere with the breakage-rejoining reaction thereby trapping the enzyme in a cleavage complex. In order to determine if the disclosed makaluvamine derivatives inhibited topoisomerase II activity, nine of the derivatives were tested for topoisomerase II inhibitory activity using a topoisomerase-II drug screening kit (TopoGEN, Inc., Port Orange, Fla.) according to the manufacturer's instructions. The screening kit uses a supercoiled plasmid DNA substrate (pRYG) which contains one topoisomerase II cleavage/recognition site. […] Relaxed DNA was separated using non-ethidium bromide (EtBr) agarose gels, then stained with EtBr and quantified using Kodak Gel Logic Imaging System and Molecular Imaging software (Eastman Kodak Co., Rochester, N.Y.). Inhibition of relaxation of plasmid DNA or catalytic activity was reported as; − none, + low, ++ moderate, or +++ strong.

MCF7 cells = test: MTT growth inhibition assay; assay type: cell-based, human; conditions: Table 5, MTT, 72 hr; for IC50: read-out: Growth inhibitory activity (IC50) in MCF7 cells
Experimental: The cell lines were obtained from the American Type Culture Collection (Rockville, Md.) and were grown as follows: MCF-7 (p53 wt) breast cancer cells were grown in DMEM media containing 1 mM non-essential amino acids, Earle's BSS, 1 mM Na pyruvate, and 10 mg/L bovine insulin.
All media contained 10% FBS and 1% penicillin/streptomycin unless otherwise specified. The effects of disclosed compounds on human cancer cell growth, expressed as the percentage of cell survival, were determined by the MTT [3-(4,5-Dimethyl-2-thiazolyl)-2,5-diphenyl-2H-tetrazolium bromide] assay. Cells were grown in 96-well plates and exposed to the test compounds (0, 0.01, 0.1, 1, 10, 100 μM) for 72 hr followed by addition of 10 μL MTT solution (5 mg/mL; Sigma; St. Louis, Mo.) to each well. The plates were incubated for 2-4 hr at 37° C. The supernatant was then removed and formazan crystals were dissolved with 100 μL of DMSO. The absorbance at 570 nm was recorded with an OPTImax microplate reader (Molecular Devices; Sunnyvale, Calif.). The cell survival percentages were calculated by dividing the mean OD of compound containing wells by that of DMSO-control wells. Three separate experiments were accomplished to determine the IC50.

MDM2 = test: Protein expression, Western blot in MCF-7 cells; assay type: cell-based, human; conditions: 1 μM, 6 h (FIG. 4A)
Experimental: (§2) In FIG. 4A, MCF-7 cells were exposed to 1 μM concentration of the indicated compounds for 6 hours. Western blots were probed with antibodies specific for the proteins indicated. Numbers below each lane show densitometry readings for each lane as compared to control. […] Western blots were probed with antibodies specific for the proteins indicated.
(§3) To determine the disclosed compounds effect on protein expression in human breast cancer cells, cultured MCF-7 cells were exposed to various concentrations of the test compounds for 6 h (FIG. 4A) or 24 h (FIG. 4B). Cell lysates were fractionated with identical amounts of protein by SDS-PAGE and transferred to Bio-Rad trans-Blot nitrocellulose membranes (Bio-Rad Laboratories, Hercules, Calif.). The nitrocellulose membrane was incubated in blocking buffer (Tris-buffered saline containing 0.1% Tween 20 and 5% nonfat milk) for 1 h at room temperature, then with the appropriate primary antibody overnight at 4° C. or 2 h at room temperature with gentle shaking. Finally, the membrane was washed three times with the washing buffer (Tris-buffered saline containing 0.1% Tween 20) for 15 min, incubated with goat anti mouse/rabbit IgG-horseradish peroxidase-conjugated antibody (Bio-Rad) for 1 h at room temperature, and washed again (in triplicate). The protein of interest was detected by enhanced chemiluminescence reagents from PerkinElmer LAS, Inc (Boston, Mass.).

p21 = test: Protein expression, Western blot in MCF-7 cells; assay type: cell-based, human; conditions: 1 μM, 6 h (FIG. 4A)
Experimental: as §2, §3

p53 = test: Protein expression, Western blot in MCF-7 cells; assay type: cell-based, human; conditions: 1 μM, 6 h (FIG. 4A)
Experimental: as §2, §3

SMILES	IC50 (MDA-MB-468)	IC50 (MCF-7)	IC50 (HCT-116)	Topoisomerase II Inhibition (topoisomerase II)	Growth inhibitory activity (IC50) in MCF7 cells (MCF7 cells)	IC50 (MCF7 cells)	inhibition of topoisomerase II catalytic activity (in words) (topoisomerase II)	expression of MDM2 (MDM2)	expression of p21 (p21)	expression of p53 (p53)
CCNC1=CC2=NCCc3c[nH]c(c32)C1=O [Compound 4b]	400 ± 30 nM	1300 ± 300 nM	3600 ± 700 nM	—						
O=C1C(NCCc2cc(Br)c(O)c(Br)c2)=CC2=NCCc3c[nH]c1c32 [Compound 4f]	4500 ± 800 nM	13200 ± 3100 nM	14400 ± 1200 nM	+++	μM range	2720 nM	comparable to etoposide and m-AMSA; also recorded: strongest inhibition	increased the expression	increased the expression	increased the expression
O=C1C(NCCc2c[nH]c3ccccc23)=CC2=NCCc3c[nH]c1c32 [Compound 4g]	400 ± 10 nM	1600 ± 200 nM	5200 ± 800 nM	—						
Cc1ccc(S(=O)(=O)n2cc3c4c2C(=O)C(NCc2ccccc2)=CC4=NCC3)cc1 [Compound 7c]	1000 ± 10 nM	1800 ± 200 nM	2700 ± 1500 nM	+++	μM range	1200 nM	comparable to etoposide and m-AMSA; also recorded: strongest inhibition	inhibited the expression	decreased the expression	increased the expression
COc1cc(NS(C)(=O)=O)ccc1Nc1c2ccccc2nc2ccccc12 [m-AMSA, reference compound]	8500 nM	21700 nM	700 nM	++						
